Results on three compounds are retold here after patent US20250188091A1, “PYRIDONE COMPOUND HAVING INTEGRASE INHIBITORY ACTIVITY AND PHARMACEUTICAL USE THEREOF” (priority 2021, published 2025).

What all share (format): cell-based
The test system of series [1] is human immunodeficiency virus type 1 IIIB strain (HIV-1IIIB). The experiment in a line: Cell protection assay against HIV infection (MT-4 cells, XTT). To be noted: for CC50/EC50: MT-4 cells, HIV-1IIIB. The protocol: The protective effect of the test compound on MT-4 cells infected by human immunodeficiency virus type 1 IIIB strain (HIV-1IIIB) at different concentrations was evaluated.
The test compound was dissolved in DMSO at a concentration of 10 mM and stored at −20° C.
2) Test of the anti-HIV-1 IIIB infection activity of the compound: A starting concentration of 10 nM was used, and five serial five-fold dilutions were carried out on the compound. Each compound was present in the test medium at a concentration 2 folds of the final desired test concentration. 100 microliters (100 μL) of the solution of each concentration was added to triplicate wells for efficacy evaluation, and each concentration was added one well for colorimetric evaluation. AZT was purchased from Sigma Aldrich (St. Louis, MO, USA), and evaluated as a control compound in the antiviral assay.
(§1) Cell culture: MT-4 cells were passaged in a T-75 flask before use in the antiviral assay. On the day before the assay, cells were passaged in aliquots at a 1:2 ratio to ensure that they were in the exponential growth phase at the time of infection. Total cells and viable cells were quantified using a hemocytometer and trypan blue dye. The proportion of viable cells used for the assay was greater than 95%. The cells were resuspended in tissue culture medium at 5×10^4 cells per milliliter, and the resulting suspension was added to a drug-containing microtiter plate in a volume of 50 μL.
Virus preparation: The virus used for this assay was lymphotropic virus strain HIV-1IIIB. The viruses were amplified in CEM-SS cells for the preparation of virus stock solution. The pre-titered virus aliquot tube was taken from the refrigerator (−80° C.), and slowly thawed to room temperature in a biosafety cabinet. The viruses were diluted in the tissue culture medium. 50 μl of the diluted virus would produce 85% to 95% cell killing 6 days after infection. 50 μL of the diluted virus was added immediately to the microtiter plate containing cells and drugs.
(§2) Evaluation of the efficacy and toxicity of the compound with XTT: After culturing for six days in a 37° C., 5% CO2 incubator, tetrazolium dye XTT (2,3-bis(2-methoxy-4-nitro-5-sulfophenyl)-5-[(phenylamino)carbonyl]-2H-tetrazolium hydroxide) was added to the cell culture plate to conduct the test. The XTT solution was a 1 mg/ml RPMI1640 stock solution prepared on the same day. Phenazine methyl sulfate (PMS) solution at a concentration of 0.15 mg/ml was prepared in PBS, and stored in the dark at −20° C. XTT/PMS stock solution was prepared before use by adding 40 μl of PMS per milliliter of XTT solution. […] of XTT/PMS was added to each well of the plate, and the plate was re-incubated for 4 hours at 37° C. The plate was sealed with adhesive plate sealant, and gently shaked or inverted several times to mix the soluble formazan product. The absorbance was read at 450/650 nm.

Series [2] concerns HIV-1 subtype C MW/93/959. As to the kind of experiment: Inhibitory activity against clinical HIV-1 strain MW/93/959 in PBMC. The settings on record: MW/93/959, human PBMC, 7 days, reverse transcriptase activity in supernatant. As to the method: (§3) Preparation of virus: Clinical HIV-1 virus strains (Table 3) were obtained from the US NIH AIDS Research and Reference Reagent Library. PBMC were extracted from three fresh blood samples that were HIV and HBV seronegative, mixed and cultured, and PHA-P (phytohemagglutinin) was added to stimulate activation. The cells and virus were incubated at 37° C./5% CO2, and the cell culture supernatant after infection was collected and stored frozen at −80° C. Each viral titer was titrated in pooled PBMCs from three donors.
(§4) Assay of antiviral activity of compounds: Frozen PBMCs were resuspended in fresh culture medium (1×10^6 cells/mL), and added to a round-bottom 96-well plate ([…]). 100 μl of culture medium containing 2 times the final concentration of the compound was added to each well, and then 50 μL of virus solution was added (the final infection dose was MOI=0.002). After 7 days of culture, the reverse transcriptase activity in the supernatant was determined to evaluate HIV-1 replication. At the same time, a 96-well culture plate with only compounds and cells was prepared for the assay of compound cytotoxicity.

Series [3] relates to HIV-1 subtype A RW/92/009. As to the kind of experiment: Inhibitory activity against clinical HIV-1 strain RW/92/009 in PBMC. The settings on record: RW/92/009, human PBMC, 7 days, reverse transcriptase activity in supernatant. The protocol:
as §3, §4

Another series concerns MT-4 cells. The experiment in a line: Test of cytotoxicity of the compound (MT-4 cells, XTT). To be noted: 6 days. As to the method: (§5) 1) Test of cytotoxicity of the compound: The test compound was evaluated using a starting concentration of 100 nM and five serial half-log dilutions. Each compound was present in the test medium at a concentration 2 folds of the final desired test concentration. The compound was diluted to 1 mM in DMSO. The compound was then diluted to 200 nM in a drug dilution tube containing 998 μL of test medium (adding 2 μL of 1 mM stock). […] of the 200 nM solution was transferred into 680 μL of the test medium (half-log dilution), and a total of five serial dilutions were carried out. 100 microliters (100 μL) of the solution of each concentration was added to duplicate wells for cytotoxicity evaluation, and each concentration was added to one well for colorimetric evaluation.
as §1, §2

The subject of series [4] is HIV-1 subtype D UG/92/001. The experiment in a line: Inhibitory activity against clinical HIV-1 strain UG/92/001 in PBMC. To be noted: UG/92/001, human PBMC, 7 days, reverse transcriptase activity in supernatant. As to the method: as §3, §4
For series [5], the system named is HIV-1 integrase E138K pseudovirus. The experiment in a line: Pseudovirus-based assay of anti-HIV-1 activity, E138K strain. To be noted: HEK-293T, 72 h. As to the method:
(§6) The inhibitory activity against pseudoviruses containing common clinical mutation sites of HIV-1 integrase (G140S/Q148R, Q148R/N155H, E138K, Q148H, R263K and Y143R/Q148H) was determined.
(§7) Preparation of pseudovirus: Using the lentiviral plasmid pNL4-3-Luc-RE (HedgehogBio) as the backbone, an integrase point mutation plasmid was constructed. HEK293T cells (ATCC) were seeded in a 6-well plate at 5×10^5 cells per well. After 24 hours, when the cell density reached 60% to 80%, transfection was performed. pNL4-3-Luc-R-E- or pNL4-3-Luc-R-E--IN-mutant plasmid and lentivirus packaging plasmid pMD2.G (Beijing Zoman Bio) were added to the transfection reagent in a certain proportion. Cell transfection was performed according to the instructions of transfection reagent PEI25K (Maokang Biotechnology). After 48 hours, the supernatant was collected, centrifuged at 3000 rpm for 5 minutes, filtered with a 0.45 μm microporous membrane, aliquoted, and stored at −80° C. for later use. In HEK293T cells, the pseudovirus titer was determined based on luciferase activity.
(§8) Determination of antiviral activity of compounds: In a 96-well V-bottom plate, the compound to be tested was diluted with DMSO semi-logarithmically, and a compound solution 4 times the final concentration was prepared for later use. According to the results of different virus titrations, the virus was diluted with complete culture medium for later use. HEK293T cells were digested with trypsin to obtain a cell suspension of 2×10^5/mL. 50 µl of compound diluent, 50 µl of virus diluent and 100 µl of cell suspension were added successively to a 96-well flat-bottomed plate. The final concentration of the compound was 1000 nM to 0.1 nM. The 96-well plate was incubated in a 37° C., 5% CO2 incubator. After 72 hours, 100 µL of culture supernatant was pipetted out carefully from each well of the 96-well plate, 25 µL of Steady-Glo detection reagent (Promega, Cat #E2550) was added to each well in the dark, and then assayed on a machine (Tecan, Type #Spark).

The test system of series [6] is WT (wild type) pseudovirus. As to the kind of experiment: Pseudovirus-based assay of anti-HIV-1 activity, WT strain. To be noted: HEK-293T, 72 h. As to the method:
as §6, §7, §8

Series [7] has as its system HIV-1 integrase Q148R/N155H pseudovirus. As to the kind of experiment: Pseudovirus-based assay of anti-HIV-1 activity, Q148R/N155H strain. To be noted: HEK-293T, 72 h. The protocol:
as §6, §7, §8

In series [8] the test system is HIV-1 integrase R263K pseudovirus. The experiment in a line: Pseudovirus-based assay of anti-HIV-1 activity, R263K strain. To be noted: HEK-293T, 72 h. As to the method: as §6, §7, §8
For series [9], the system named is HIV-1 integrase G140S/Q148R pseudovirus. As to the kind of experiment: Pseudovirus-based assay of anti-HIV-1 activity, G140S/Q148R strain. To be noted: HEK-293T, 72 h. The protocol: as §6, §7, §8
The nature of series [10]: Test of cytotoxicity of the compound (MT-4 cells, XTT). The settings on record: human. The protocol:
as §5, §1, §2

In series [11] the test system is HIV-1 integrase Q148H pseudovirus. As to the kind of experiment: Pseudovirus-based assay of anti-HIV-1 activity, Q148H strain. The settings on record: HEK-293T, 72 h. The protocol: as §6, §7, §8
Series [12] has as its system HIV-1 integrase Y143R/Q148H pseudovirus. As to the kind of experiment: Pseudovirus-based assay of anti-HIV-1 activity, Y143R/Q148H strain. The settings on record: HEK-293T, 72 h. The protocol:
as §6, §7, §8

Like-named read-outs stand apart in the source and are kept apart here.

On to `Cc1cn([C@H]2C[C@H](N=[N+]=[N-])[C@@H](CO)O2)c(=O)[nH]c1=O` [AZT], for which the EC50 stood at 2 nM in [1] (MT-4 cells infected by HIV-1IIIB, 6 days, XTT, read-out: EC50); 0.31 nM in [2] (read-out: hPBMC/HIV-1 EC50); 3.58 nM in [3] (read-out: hPBMC/HIV-1 EC50); 4.02 nM in [4] (read-out: hPBMC/HIV-1 EC50). Also, the CC50/EC50 in [1] is recorded as more than 250. Besides, the EC90 in series [2] (read-out: hPBMC/HIV-1 EC90) was 38.6 nM; in series [3] (read-out: hPBMC/HIV-1 EC90) it was 75.5 nM; in series [4] (read-out: hPBMC/HIV-1 EC90), 62 nM. In the series with MT-4 cells, this compound yielded a CC50 of more than 500 nM.
Take `O=C(NCc1ccc(F)cc1F)c1cn2c(c(O)c1=O)C(=O)N1[C@@H](C3CC3)CO[C@@H]1C2` [Compound 1]: the EC50 in series [5] was determined as 5.1 nM; in series [6] it was 3.3 nM; in series [7], 611 nM; in series [1] (Human immunodeficiency virus 1, IIIB, MT4, 144 h) it was 3.12 nM; in series [8], 6.5 nM; in series [9], 244 nM. In addition, the EC50 in [11] came to 15.9 nM; in series [12] it was 21.3 nM. The EC90 is 27.1 nM in [5]; 29.1 nM in [6]; more than 1000 nM in series [7]; 58.3 nM in series [8]; more than 1000 nM in [9]; 105 nM in [11]. For the same compound, in series [12], the EC90 turned out to be 193 nM. This compound also gave a CC50/EC50 in [1] of more than 32.1. In series [10], this compound registered a half-maximal cytotoxic concentration (CC50) at 6 days of more than 100 nM.
As to `Cc1nnc(C(=O)NC(C)(C)c2nc(C(=O)NCc3ccc(F)cc3)c(O)c(=O)n2C)o1` [Raltegravir, raltegravir], the EC50 in series [5] was 8.1 nM; in [6], 5.5 nM; in [7], more than 1000 nM; in series [8] it was 7.1 nM; in series [9], more than 1000 nM; in series [11] it was 214 nM. The compound also yielded an EC50 in series [12] of more than 1000 nM. Moreover, the EC90 was 46.2 nM in series [5]; 60.7 nM in series [6]; more than 1000 nM in series [7]; 68 nM in [8]; more than 1000 nM in [9]; more than 1000 nM in series [11]. In addition, the EC90 in [12] was more than 1000 nM.
